This passage reports MIC, IL-6 levels and cell viability results from article PMC11048155, “Antiviral Drug Candidate Repositioning for Streptococcus suis Infection in Non-Tumorigenic Cell Models” (Biomedicines, 2024).

Converted amounts (≈) assume the structure as drawn. “Also recorded” adds a separate entry of the source.

For assay [1], the system named is Staphylococcus (S.) aureus (ATCC 10832). Briefly: MIC measurement (broth microdilution). The format is cell-based. Particulars: source ATCC, 18–24 h at 37 °C, read-out: MIC. For orientation: In broth dilution the organism is exposed to a series of concentrations in liquid medium.
In assay [2] the test system is Escherichia (E.) coli (ATCC 11775). Briefly: MIC measurement (broth microdilution). Format: cell-based. Particulars: source ATCC, 18–24 h at 37 °C.
The subject of a further assay is porcine hepatocytes. Put plainly: IL-6 production, porcine IL-6 ELISA. Format: cell-based. The settings on record: S. suis 10^4 CFU/mL in combination with inhibitor, 24 h. As to the method:
(§1) After 24 h incubation time, the cell-free supernatants from […], MI-471, and MI-476 exposure were sampled from IPEC-J2 cells and from porcine hepatocytes. The changes in cytokine levels were detected with porcine IL-6 ELISA kits. The manufacturer’s instructions were followed to treat the supernatants and measured by a SpectraMax iD3 microplate reader at 450 nm.
(In general: An ELISA detects its analyte on a solid surface through an enzyme-linked reagent.)

The subject of assay [3] is IPEC-J2 cells. Put plainly: IL-6 production, porcine IL-6 ELISA. Particulars: IPEC-J2, S. suis 10^4 CFU/mL in combination with inhibitor, 24 h. Format: cell-based. The method, then:
as §1

The test system of assay [4] is IPEC-J2 cells. Briefly: Cell viability, Neutral red assay. The settings on record: IPEC-J2, S. suis 10^4 CFU/mL in combination with inhibitor 50 µM, 24 h. Format: cell-based, porcine. An excerpt: The IPEC-J2 cell line is unique as it is non-transformed and non-tumorigenic. IPEC-J2 cells are derived from intestinal enterocytes extracted from the jejunum of neonatal unsuckled piglets. IPEC-J2 cells were gifted by Dr. Jody Gookin (Department of Clinical Sciences, College of Veterinary Medicine, North Carolina State University, Raleigh, NC, USA). […] The cells had undergone passage around 50 times. […] This experiment included plain DMEM/F12 medium as a control. At the end of the final treatments (24 h), the ratio of viable cells was measured by absorbance at 540 nm wavelength with a SpectraMax iD3 microplate reader.

In assay [5] the test system is Pseudomonas (P.) aeruginosa (ATCC 27853). Put plainly: MIC measurement (broth microdilution). The format is cell-based. The settings on record: source ATCC, 18–24 h at 37 °C.
Assay [6] concerns Pasteurella (P.) multocida (clinical isolate). Briefly: MIC measurement (broth microdilution). The format is cell-based. Particulars: source 380/22, 18–24 h at 37 °C.
The subject of assay [7] is primary porcine hepatocytes. Put plainly: Cell viability, Neutral red assay. The settings on record: S. suis 10^4 CFU/mL in combination with inhibitor 50 µM, 24 h. The format is cell-based. The method, then:
Porcine cryopreserved primary hepatocytes were obtained from Primacyt Cell Culture Company (Schwerin, Germany). Lonza Group Ltd. (Biocenter Ltd., Szeged, Hungary) supplied the thawing, plating, and maintenance media. The cytotoxic effects of inhibitors MI-432, MI-471, and MI-476 were tested on the viability of primary hepatocytes using the NR method. The hepatocytes were cultivated on a 96-well plate for 24 h, followed by incubation with the inhibitors at 0, 50, and 100 µM for an additional 24 h. Only cell maintenance medium was used to incubate the control cells. The plate underwent incubation together with NR dye for 2 h. Hepatocyte viability was recorded at 540 nm with a SpectraMax iD3 microplate reader.

As to `N=C(N)c1cccc(C[C@H](NS(=O)(=O)c2cccc(-c3ccc(Cl)cc3Cl)c2)C(=O)N2CCC(N)CC2)c1` [MI-471], the MIC (as a rule, the smallest concentration in the dilution series that meets the test's criterion for growth inhibition) is 100 µM (≈ 57.5 µg/mL) in assay [1], over 800 µM in assay [2], over 800 µM in assay [5] and 50 µM (≈ 28.7 µg/mL) in assay [6]. Also, the IL-6 levels result in the assay with porcine hepatocytes and in the assay with IPEC-J2 cells [3] was “significant anti-inflammatory effects” throughout. Further, the cell viability result in the assay with IPEC-J2 cells [4] was “did not show any negative effect on cell viability; also recorded: effectively suppressed”.

Take `N=C(N)c1cccc(C[C@H](NS(=O)(=O)c2cccc(-c3ccc(Cl)cc3Cl)c2)C(=O)N2CCC(CN)CC2)c1` [MI-476]: the minimum inhibitory concentration (MIC) in assay [1] was 100 µM (≈ 58.9 µg/mL); in assay [2] it was over 800 µM; in assay [5], over 800 µM; in assay [6] it was 50 µM (≈ 29.4 µg/mL). Besides, the cell viability entry in assay [7] is recorded as “did not deteriorate cell viability; also recorded: effectively suppressed”; in the assay on IPEC-J2 cells [4] it was “did not show any negative effect on cell viability; also recorded: effectively suppressed”. Also, the IL-6 levels result in the assay on porcine hepatocytes and with IPEC-J2 cells [3] was “significant anti-inflammatory effects” throughout.
